Measured values published in paper doi:10.1101/2022.06.11.495772v2 (biorxiv, 2022).
Square brackets hold non-standard residues; d marks the D form. Peptide text beside a SMILES is read from it. NMeY = CN[C@@H](Cc1ccc(O)cc1)C(=O)O; NMeT = CN[C@H](C(=O)O)[C@@H](C)O; NMeL = CN[C@@H](CC(C)C)C(=O)O

What was measured:
[1] = biological target: T1, EcMetAP (Escherichia coli, UniProt P0AE18); assay: biochemical
T1 sequence (P0AE18 2-264): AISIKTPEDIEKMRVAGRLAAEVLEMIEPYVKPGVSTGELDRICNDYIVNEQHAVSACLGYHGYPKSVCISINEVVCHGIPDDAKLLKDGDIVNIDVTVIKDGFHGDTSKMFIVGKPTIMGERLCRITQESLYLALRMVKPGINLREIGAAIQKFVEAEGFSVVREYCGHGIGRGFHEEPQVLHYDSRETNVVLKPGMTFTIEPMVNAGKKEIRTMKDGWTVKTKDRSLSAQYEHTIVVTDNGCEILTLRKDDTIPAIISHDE

[2] = biological target: HsMetAP1 (Homo sapiens, UniProt P53582); assay: biochemical
[3] = biological target: HsMetAP2 (Homo sapiens, UniProt P50579); assay: biochemical
[4] = biological target: T1, EcMetAP; assay: coupled fluorogenic Met-Gly-Pro-AMC / DPPIV assay; format: biochemical

Chain of HsMetAP2 (P50579 2-478): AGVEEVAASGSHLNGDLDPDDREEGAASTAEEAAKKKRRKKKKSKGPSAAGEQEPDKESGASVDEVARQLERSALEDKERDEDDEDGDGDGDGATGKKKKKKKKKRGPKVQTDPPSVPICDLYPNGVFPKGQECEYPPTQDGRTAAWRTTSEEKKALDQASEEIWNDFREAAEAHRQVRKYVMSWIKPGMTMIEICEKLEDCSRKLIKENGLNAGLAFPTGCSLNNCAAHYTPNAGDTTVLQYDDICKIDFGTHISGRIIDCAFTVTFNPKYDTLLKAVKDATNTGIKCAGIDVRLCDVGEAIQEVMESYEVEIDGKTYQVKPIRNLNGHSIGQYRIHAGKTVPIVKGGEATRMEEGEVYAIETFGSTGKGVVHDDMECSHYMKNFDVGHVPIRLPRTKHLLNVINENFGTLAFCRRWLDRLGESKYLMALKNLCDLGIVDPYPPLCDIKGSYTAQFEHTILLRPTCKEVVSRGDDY

| SMILES | IC50 [1] [µM] | IC50 [2] [µM] | IC50 [3] [µM] | IC50 [4] [µM] |
| --- | --- | --- | --- | --- |
| CCCCCCCCCCCCCC(=O)O[C@H]1CC[C@H](NC(=O)[C@H](OC)[C@H](O)[C@@H](O)[C@H](O)/C=C/C(C)C)C(=O)N(C)C1 [bengamide B] | > 2000 | – | – | – |
| CC(C)CC1C(=O)OC(C)C(N(C)C(=O)C(Cc2ccc(O)cc2)N(C)C)C(=O)N(C)C(CC(C)C)C(=O)OC(C)C(N(C)C(=O)C(Cc2ccc(O)cc2)N(C)C)C(=O)N1C (stereo not shown) [metapeptin A] | > 2000 | > 2000 | > 2000 | – |
| CO[C@@H]1[C@H](OC(=O)NC(=O)CCl)CC[C@]2(CO2)[C@H]1[C@@]1(C)O[C@@H]1CC=C(C)C [TNP-470] | > 2000 | > 2000 | 0.69 ± 0.05 | – |
| CNC(Cc1ccc(O)cc1)C(=O)N(C)C1C(=O)N(C)C(CC(C)C)C(=O)OC(C)C(N(C)C(=O)C(Cc2ccc(O)cc2)N(C)C)C(=O)N(C)C(CC(C)C)C(=O)OC1C (stereo not shown) [metapeptin B] | 0.47 ± 0.29 | 49.7 ± 3.98 | > 2000 | ~0.5 |
| CN[C@@H](Cc1ccc(O)cc1)C(=O)N(C)[C@H](C(=O)N(C)[C@@H](CC(C)C)C(=O)OC)[C@@H](C)OC [NMe-Monomer] (H-[NMeY]-[NMeT](Me)-[NMeL]-OMe) | – | > 2000 | > 2000 | – |
